Results published in US7060692B2, “Active ingredient combinations comprising insecticidal and acaricidal properties” (priority 2000, dated 2006).

Assays:
Aphis gossypii = Aphis gossypii test (cotton leaves dipped); format: in vivo; conditions: single active compound, 1.6 ppm, cotton leaves (Gossypium hirsutum) dipped
Method: (§1) To produce a suitable preparation of active compound, 1 part by weight of active compound is mixed with the stated amounts of solvent and emulsifier, and the concentrate is diluted with water to the desired concentrations.
Cotton leaves (Gossypium hirsutum), which are heavily infested by the cotton aphid (Aphis Gossypii) are treated by being dipped into the preparation of active compound of the desired concentration.
After the desired period of time, the kill in % is determined. 100% means that all aphids have been killed; 0% means that none of the aphids have been killed. The kill rates determined are calculated using Colby's formula.

Myzus persicae = assay: Myzus test (cabbage leaves dipped); format: in vivo; conditions: single active compound, 1.6 ppm, cabbage leaves (Brassica oleracea) dipped
Method: as §1
Cabbage leaves (Brassica oleracea), which are heavily infested by the peach aphid (Myzus persicae) are treated by being dipped into the preparation of active compound of the desired concentration.
After the desired period of time, the kill in % is determined. 100% means that all animals have been killed; 0% means that none of the animals have been killed. The kill rates determined are calculated using Colby's formula.

Row | SMILES | Kill rate in % after 6d (Aphis gossypii) | Kill rate in % after 6d (Myzus persicae)
1 | Cc1nc(N(C)C)nc(OC(=O)N(C)C)c1C [pirimicarb] | 5% | –
2 | CC[S+]([O-])CCSP(=O)(OC)OC (centres unmarked) [oxydemeton-methyl] | – | 0%
